Assay results taken from US6451819B2, “Heterocyclic compounds useful as NMDA receptor selective subtype blockers” (Hoffmann-La Roche Inc., priority 2000, dated 2002).
Like-named read-outs stand apart in the source and are kept apart here.

Experiments:
[1] = molecular target: T1, NMDA receptor (3H-Ro 25-6981 binding site), rat brain membranes (Rattus norvegicus, UniProt P35439+Q00960); test: 3H-Ro 25-6981 binding
T1 construct: Membranes were prepared by homogenization of the whole brain minus cerebellum and medulla oblongata; from tissue; host or cells: rat whole brain minus cerebellum and medulla oblongata, membrane preparation
T1 sequence (Q00960 27-1482, other chains not shown): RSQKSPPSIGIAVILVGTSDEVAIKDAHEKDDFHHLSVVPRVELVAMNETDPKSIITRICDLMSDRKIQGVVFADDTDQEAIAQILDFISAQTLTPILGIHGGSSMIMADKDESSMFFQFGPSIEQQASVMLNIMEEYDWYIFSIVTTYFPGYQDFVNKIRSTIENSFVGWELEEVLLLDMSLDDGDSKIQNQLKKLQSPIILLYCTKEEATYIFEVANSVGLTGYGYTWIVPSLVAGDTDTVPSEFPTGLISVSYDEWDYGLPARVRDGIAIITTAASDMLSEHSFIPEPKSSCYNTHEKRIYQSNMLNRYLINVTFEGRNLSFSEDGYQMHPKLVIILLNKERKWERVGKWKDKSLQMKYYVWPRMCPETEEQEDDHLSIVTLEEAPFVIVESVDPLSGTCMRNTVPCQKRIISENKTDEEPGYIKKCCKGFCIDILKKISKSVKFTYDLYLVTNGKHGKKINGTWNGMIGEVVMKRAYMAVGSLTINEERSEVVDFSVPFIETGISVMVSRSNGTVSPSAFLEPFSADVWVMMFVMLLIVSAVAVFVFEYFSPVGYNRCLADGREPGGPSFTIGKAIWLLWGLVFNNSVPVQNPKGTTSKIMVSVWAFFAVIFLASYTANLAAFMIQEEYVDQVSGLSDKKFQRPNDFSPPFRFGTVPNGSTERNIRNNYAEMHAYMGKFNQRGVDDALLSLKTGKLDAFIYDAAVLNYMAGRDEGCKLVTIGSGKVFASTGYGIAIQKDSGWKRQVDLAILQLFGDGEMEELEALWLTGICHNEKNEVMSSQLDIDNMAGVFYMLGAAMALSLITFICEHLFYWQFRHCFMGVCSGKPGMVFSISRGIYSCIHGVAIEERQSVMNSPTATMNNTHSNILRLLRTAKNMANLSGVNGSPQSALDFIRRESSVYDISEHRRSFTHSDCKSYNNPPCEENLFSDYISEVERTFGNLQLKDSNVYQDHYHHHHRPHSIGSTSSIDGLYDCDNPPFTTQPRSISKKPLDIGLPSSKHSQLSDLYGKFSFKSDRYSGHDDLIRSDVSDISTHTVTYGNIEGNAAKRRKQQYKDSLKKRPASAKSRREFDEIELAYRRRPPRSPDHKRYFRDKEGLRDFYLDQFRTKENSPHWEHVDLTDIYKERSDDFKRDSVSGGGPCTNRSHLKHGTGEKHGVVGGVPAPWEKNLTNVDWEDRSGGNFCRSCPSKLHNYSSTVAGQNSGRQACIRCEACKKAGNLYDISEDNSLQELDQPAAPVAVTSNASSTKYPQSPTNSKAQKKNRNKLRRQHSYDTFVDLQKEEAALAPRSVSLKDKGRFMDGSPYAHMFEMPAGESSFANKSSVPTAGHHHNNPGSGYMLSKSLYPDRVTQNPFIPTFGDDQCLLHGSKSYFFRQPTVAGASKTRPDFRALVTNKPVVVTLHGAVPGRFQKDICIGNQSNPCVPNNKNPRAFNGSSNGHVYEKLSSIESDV
Protocol: 3H-Ro 25-6981 binding (Ro 25-6981 is [R—(R*,S*)]-a-(4-hydroxy-phenyl)-b-methyl-4-(phenyl-methyl)-1-piperidine propanol)
Male Füllinsdorf albino rats weighing between 150-200 g were used. Membranes were prepared by homogenization of the whole brain minus cerebellum and medulla oblongata with a Polytron (10,000 rpm, 30 seconds), in 25 volumes of a cold Tris-HCl 50 mM, EDTA 10 mM, pH 7.1 buffer. The homogenate was centrifuged at 48,000 g for 10 minutes at 4° C. The pellet was resuspended using the Polytron in the same volume of buffer and the homogenate was incubated at 37° C. for 10 minutes. After centrifugation the pellet was homogenized in the same buffer and frozen at −80° C. for at least 16 hours but not more than 10 days. For the binding assay the homogenate was thawed at 37° C., centrifuged and the pellet was washed three times as above in a Tris-HCl 5 mM, pH 7.4 cold buffer. The final pellet was resuspended in the same buffer and used at a final concentration of […].
3H-Ro 25-6981 binding experiments were performed using a Tris-HCl 50 mM, pH 7.4 buffer. For displacement experiments 5 nM of 3H-Ro 25-6981 were used and non-specific binding was measured using 10 mM of tetrahydroisoquinoline and usually it accounts for 10% of the total. The incubation time was 2 hours at 4° C. and the assay was stopped by filtration on Whatman GF/B glass fiber filters (Unifilter-96, Packard, Zürich, Switzerland). The filters were washed 5 times with cold buffer. The radioactivity on the filter was counted on a Packard Top-count microplate scintillation counter after addition of […] of microscint 40 (Canberra Packard S.A., Zürich, Switzerland).
The effects of compounds were measured using a minimum of 8 concentrations and repeated at least once. The pooled normalized values were analyzed using a non-linear regression calculation program which provide IC50 with their relative upper and lower 95% confidence limits (RS1, BBN, USA).

[2] = displacement of 5 nM 3H-Ro 25-6981, rat whole brain minus cerebellum and medulla oblongata membranes, 2 hours at 4° C., read-out: IC50

| Compound | IC50 [1, 2] [nM] | other results |
| --- | --- | --- |
| O=S(=O)(c1ccc(O)cc1)[C@H]1CCN(CC(F)CCc2ccccc2)C1 (mixture of isomers) [Example 35, (2R,3S) and (2S,3S)-4-[1-(2-Fluoro-4-phenyl-butyl)-pyrrolidine-3-sulfonyl]-phenol] | – | IC50 [1]: 29 nM |
| Oc1ccc(S[C@H]2CCN(CC(F)CCc3ccccc3)C2)cc1 (mixture of isomers) [Example 68, (2RS,3S)-4-[1-(2-Fluoro-4-phenyl-butyl)-pyrrolidin-3-ylsulfanyl]-phenol] | – | IC50 [1]: 77 nM |
| Cl.O=S(=O)(c1ccc(O)cc1)C1CCN(CCCCc2ccccc2)C1 (racemic) | – | melting point: 121 to 124 °C |
| O=S(=O)(c1ccc(O)cc1)[C@@H]1CN(CCCCc2ccccc2)C[C@H]1O (racemic) [Example 16, (3RS,4RS)-4-(4-Hydroxy-benzenesulfonyl)-1-(4-phenyl-butyl)-pyrrolidin-3-ol] | 80 | – |
| [O-][S@@+](c1ccc(O)cc1)[C@H]1CCN(C[C@@H](F)CCc2ccccc2)C1 [Example 62, (2S,3S,S-oxide R)-4-[1-(2-Fluoro-4-phenyl-butyl)-pyrrolidine-3-sulfinyl]-phenol] | 60 | – |

The next lines start with results.

| IC50 [1, 2] [nM] | Compound | other results |
| --- | --- | --- |
| 31 | O=S(=O)(c1ccc(O)cc1)[C@H]1CCN(CC(O)C2Cc3ccccc3C2)C1 (mixture of isomers) [Example 43, (2R,3S) and (2S,3S)-4-[1-(2-Hydroxy-2-indan-2-yl-ethyl)-pyrrolidine-3-sulfonyl]-phenol] | – |
| 59 | O=S(=O)(c1ccc(O)cc1)C1CCN([C@H]2CC[C@@H](c3ccccc3)CC2)C1 (relative stereo) [Example 6, (3RS,cis)-4-[1-(4-Phenyl-cyclohexyl)-pyrrolidine-3-sulfonyl]-phenol] | – |
| 9 | Oc1ccc(S[C@H]2CCN(CCCCc3ccccc3)C2)cc1 [Example 2, (S)-4-[1-(4-Phenyl-butyl)-pyrrolidin-3-yl-sulfanyl]-phenol] | – |
| 20 | Oc1ccc(S[C@@H]2CCN(CCCCc3ccccc3)C2)cc1 [Example 3, (R)-4-[1-(4-Phenyl-butyl)-pyrrolidin-3-yl-sulfanyl]-phenol] | – |
| 40 | O=S(=O)(c1ccc(O)cc1)C1CCN(C2CC(Cc3ccccc3)C2)C1 (stereo not drawn) [Example 4, (3RS,cis) and (3RS,trans)-4-[1-(3-Benzyl-cyclobutyl)-pyrrolidine-3-sulfonyl]-phenol] | – |
